These results are taken from patent US10640486B2, “Heteroarylcarboxamide derivatives as plasma kallikrein inhibitors” (Boehringer Ingelheim International GmbH, priority 2015, dated 2020).

A word on the pIC50: it is the IC50 on a negative log10 scale, so that one unit is a factor of ten.

Molecules are shown by their SMILES. pIC50: −log10 of the molar value. A value given as a limit tells only on which side of the number the result lay.

human Plasma Kallikrein (KLKB1), sequence (P03952 391-638): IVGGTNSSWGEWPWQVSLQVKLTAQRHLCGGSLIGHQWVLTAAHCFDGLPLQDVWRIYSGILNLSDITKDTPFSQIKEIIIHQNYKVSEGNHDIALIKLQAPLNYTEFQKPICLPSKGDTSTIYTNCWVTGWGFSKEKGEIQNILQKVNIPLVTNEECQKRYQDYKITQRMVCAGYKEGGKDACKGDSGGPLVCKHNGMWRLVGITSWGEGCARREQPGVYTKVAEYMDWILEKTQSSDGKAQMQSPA
human Plasma Kallikrein (KLKB1), sequence (P03952 20-390 partner): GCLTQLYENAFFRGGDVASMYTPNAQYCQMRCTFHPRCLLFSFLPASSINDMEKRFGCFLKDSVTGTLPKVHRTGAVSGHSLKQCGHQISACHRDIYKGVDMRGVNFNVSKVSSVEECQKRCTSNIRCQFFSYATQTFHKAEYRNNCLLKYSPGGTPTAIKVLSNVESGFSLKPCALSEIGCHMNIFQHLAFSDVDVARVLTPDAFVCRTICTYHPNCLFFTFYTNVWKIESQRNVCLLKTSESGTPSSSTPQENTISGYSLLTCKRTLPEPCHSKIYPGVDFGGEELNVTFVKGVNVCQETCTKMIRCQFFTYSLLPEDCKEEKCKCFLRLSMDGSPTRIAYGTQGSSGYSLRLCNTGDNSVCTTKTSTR

The test addresses human Plasma Kallikrein (KLKB1) (Homo sapiens (Human), UniProt P03952). Nature of the test: Inhibition of KLKB1 endpoint assay. Format: biochemical. Conditions: fluorogenic substrate H-Pro-Phe-Arg-AMC, 1 hr at Room Temperature, read-out: IC50 measurements for the inhibition of human Plasma Kallikrein (KLKB1). Here is the method:
The ability of compounds of Formula I to inhibit plasma kallikrein (KLKB1), Factor XIIa (FXIIa), Factor XIa (FXIa), Factor Xa (FXa), Factor IIa (alpha-thrombin; FIIa), plasmin, trypsin, tissue kallikrein 1 (KLK1), Factor VIIa (FVIIa), or FVIIa complexed with Tissue Factor, phospholipids and CaCl2 (FVIIa/TF/PL/CaCl2) was determined using the following biochemical assays in assay buffer (100 mM Tris, 150 mM NaCL, adjusted to a pH of 7.8 with HCl, and containing 0.1% (w/v) BSA and 0.05% (v/v) Tween20) in the presence of 1% (v/v) DMSO:
Evaluation of the Inhibition of KLKB1 Using an Endpoint Assay
Subsequently, PPACK II (Calbiochem) was added as a stop solution to achieve a final concentration of 1 μM and fluorescence was measured using an Envision Reader (PerkinElmer) with the wavelength excitation setting of 355 nm and the wavelength emission setting of 460 nm.
The IC50 values were obtained with the aid of the inhibition of KLKB1 endpoint assay described above.
For `Nc1nccc2c1CCC2NC(=O)c1cnn(Cc2ccc(CN3C[C@@H]4C[C@@H]4C3=O)cc2)c1` (single isomer, unassigned) [Example 48], the pIC50 was 7.16. In the case of `Nc1nccc2c1CCC2NC(=O)c1cnn(Cc2ccc(CN3C[C@@H]4C[C@@H]4C3=O)cc2)c1` (single isomer, unassigned) [Example 49] it was 8.70. In the case of `Nc1nccc2c1CCC2NC(=O)c1cn(Cc2ccc(CN3C[C@@H]4C[C@@H]4C3=O)cc2)nc1C(F)(F)F` (single isomer, unassigned) [Example 50] it was 9.00; in that of `Nc1nccc2c1CCC2NC(=O)c1cn(Cc2ccc(CN3C[C@@H]4C[C@@H]4C3=O)cc2)nc1C(F)(F)F` (single isomer, unassigned) [Example 51], 7.05; in that of `Nc1nccc2c1CC[C@H]2NC(=O)c1cnn(Cc2ccc(CN3CC4CC4C3=O)c(C(F)(F)F)c2)c1` (single isomer, unassigned) [Example 52], 7.39.

`Nc1nccc2c1CC[C@H]2NC(=O)c1cnn(Cc2ccc(CN3CC4CC4C3=O)c(C(F)(F)F)c2)c1` (single isomer, unassigned) [Example 53]: the negative-log IC50 (pIC50) was 9.00. Then `Nc1nccc2c1CCC2NC(=O)c1cnn(Cc2ccc(CN3C[C@H]4C[C@H]4C3=O)cc2)c1` (single isomer, unassigned) [Example 54], with 7.34. In the case of `Nc1nccc2c1CCC2NC(=O)c1cnn(Cc2ccc(CN3C[C@H]4C[C@H]4C3=O)cc2)c1` (single isomer, unassigned) [Example 55] it was 6.31. In the case of `Cc1cc(Cn2cc(C(=O)N[C@@H]3CCc4c3ccnc4N)nn2)ccc1N1CCN2CCCCC2C1=O` (single isomer, unassigned) [Example 56] it was 5.92; in that of `Cc1cc(Cn2cc(C(=O)N[C@@H]3CCc4c3ccnc4N)nn2)ccc1N1CCN2CCCCC2C1=O` (single isomer, unassigned) [Example 57], 5.21; in that of `Cc1cc(Cn2cc(C(=O)N[C@@H]3CCc4c3ccnc4N)nn2)ccc1N1CCN2CCCC2C1=O` (single isomer, unassigned) [Example 58], 5.80. For `Cc1cc(Cn2cc(C(=O)N[C@@H]3CCc4c3ccnc4N)nn2)ccc1N1CCN2CCCC2C1=O` (single isomer, unassigned) [Example 59], the pIC50 is 5.66. Consider `Cc1cc(Cn2cc(C(=O)N[C@@H]3CCc4nc(N)ccc43)cn2)ccc1CN1CC2CC2C1=O` (single isomer, unassigned) [Example 67], for which the pIC50 is 6.33. Then `Cc1cc(Cn2cc(C(=O)N[C@@H]3CCc4nc(N)ccc43)cn2)ccc1CN1CC2CC2C1=O` (single isomer, unassigned) [Example 68], with 8.00; and `CC(c1ccc(N2CC3CC3C2)nc1)n1cc(C(=O)N[C@@H]2CCc3c2ccnc3N)cn1` (single isomer, unassigned) [Example 72], with 8.00. Then `CC(c1ccc(N2CC3CC3C2)nc1)n1cc(C(=O)N[C@@H]2CCc3c2ccnc3N)cn1` (single isomer, unassigned) [Example 73], with 8.22.

In the case of `Nc1ccc2c(n1)CC[C@H]2NC(=O)c1cnn(Cc2ccc(CN3C[C@H]4C[C@H]4C3=O)cc2)c1` [Example 1, 1-[4-((1R,5S)-2-Oxo-3-aza-bicyclo[3.1.0]hex-3-ylmethyl)-benzyl]-1H-pyrazole-4-carboxylic acid ((R)-2-amino-6,7-dihydro-5H-[1]pyrindin-5-yl)-amide], the pIC50 is 6.28. Regarding `Nc1ccc2c(n1)CCC2NC(=O)c1cnn(Cc2ccc(N3CCN4CCCC4C3)cc2)c1` (centres unmarked) [Example 2], the pIC50 was 5.68.

In the case of `Nc1ccc2c(n1)CC[C@H]2NC(=O)c1cnn(Cc2ccc(CN3C[C@@H]4C[C@@H]4C3=O)cc2)c1` [Example 3], the pIC50 was 7.77.

For the compound `Nc1ccc2c(n1)CCC2NC(=O)c1cn(Cc2ccc(CN3CC4CC4C3=O)cc2)nc1C(F)(F)F` (centres unmarked) [Example 4], the pIC50 was 7.20. In the case of `Nc1nccc2c1CCC2NC(=O)c1cnn(Cc2ccc(CN3CC4CC4C3=O)cc2)c1` (centres unmarked) [Example 5] it was 8.00; in that of `Nc1cc2c(cn1)CCC2NC(=O)c1cnn(Cc2ccc(CN3CC4CC4C3=O)cc2)c1` (centres unmarked) [Example 6], 7.15; in that of `Nc1ccc2c(n1)CC[C@H]2NC(=O)c1cn(Cc2ccc(CN3C[C@H]4C[C@H]4C3=O)cc2)nc1C(F)(F)F` [Example 7], 6.38. Then `Nc1ccc2c(n1)CC[C@H]2NC(=O)c1cn(Cc2ccc(CN3C[C@@H]4C[C@@H]4C3=O)cc2)nc1C(F)(F)F` [Example 8], with 7.85; and `Nc1ccc2c(n1)CCC2NC(=O)c1cn(Cc2ccc(N3CCN4CCCCC4C3=O)cc2)nn1` (centres unmarked) [Example 9], with 5.49. For the compound `Nc1ccc2c(n1)CCC2NC(=O)c1cn(Cc2ccc(Cn3cc4c(n3)CCOC4)cc2)nn1` (centres unmarked) [Example 10], the negative logarithm of the IC50 (pIC50) is 6.25. Then `Nc1ccc2c(n1)CCC2NC(=O)c1cn(Cc2ccc(CN3CCN4C(=O)CCCC4C3)cc2)nn1` (centres unmarked) [Example 11], with under 5.00; and `Nc1nccc2c1C(NC(=O)c1cn(Cc3ccc(N4CCN5CCCCC5C4=O)cc3)nn1)CC2` (centres unmarked) [Example 12], with under 5.00; and `Nc1cc2c(cn1)C(NC(=O)c1cn(Cc3ccc(N4CCN5CCCCC5C4=O)cc3)nn1)CC2` (centres unmarked) [Example 13], with under 5.00. Then `Nc1ccc2c(n1)CCC2NC(=O)c1cn(Cc2ccc(CN3CCN4CCCC4C3=O)cc2)nn1` (centres unmarked) [Example 14], with 5.23; and `Nc1ccc2c(n1)CCC2NC(=O)c1cnn(Cc2ccc(CN3CC4CC4C3=O)cc2)c1` (centres unmarked) [Example 15], with 7.09; and `Cc1nn(Cc2ccc(CN3CC4CC4C3=O)cc2)cc1C(=O)NC1CCc2nc(N)ccc21` (centres unmarked) [Example 16], with 7.07. Then `Cc1cc(N)nc2c1C(NC(=O)c1cnn(Cc3ccc(CN4CC5CC5C4=O)cc3)c1)CC2` (centres unmarked) [Example 17], with 7.38; and `Cc1cc(Cn2cc(C(=O)NC3CCc4nc(N)ccc43)nn2)ccc1N1CCN2CCCCC2C1=O` (centres unmarked) [Example 18], with 5.92; and `Cc1cc(N)nc2c1C(NC(=O)c1cn(Cc3ccc(N4CCN5CCCCC5C4=O)cc3)nn1)CC2` (centres unmarked) [Example 19], with 5.59. As for `Nc1ccc2c(n1)CC[C@H]2NC(=O)c1cnn(Cc2ccc(CN3CC4CC4C3=O)c(C(F)(F)F)c2)c1` (some centres unmarked) [Example 22], the pIC50 is 7.72.

With `Nc1nccc2c1CC[C@H]2NC(=O)c1cnn(Cc2ccc(CN3CC4CC4CC3=O)cc2)c1` (some centres unmarked) [Example 23], the pIC50 was 8.70.

On to `Nc1cc(C(F)(F)F)c2c(n1)CCC2NC(=O)c1cnn(Cc2ccc(CN3CC4CC4C3=O)cc2)c1` (centres unmarked) [Example 24], for which the pIC50 is 5.48. Take `Nc1ccc2c(n1)CCC2NC(=O)c1cn(Cc2ccc(-n3cc4c(n3)CCOC4)cc2)nn1` (centres unmarked) [Example 27]: the pIC50 was under 5.00. For the compound `Nc1ccc2c(n1)CCC2NC(=O)c1cn(Cc2ccc(C3CC4CCCN4C3=O)cc2)nn1` (centres unmarked) [Example 29], the pIC50 is 5.66.

As for `Nc1ccc2c(n1)CC[C@H]2NC(=O)c1cn(Cc2ccc(N3CC4CC4C3)nc2)nn1` (some centres unmarked) [Example 32], the negative-log IC50 (pIC50) is 7.62. In the case of `Nc1nccc2c1CC[C@H]2NC(=O)c1cn(Cc2ccc(N3CC4CC4C3)nc2)nn1` (some centres unmarked) [Example 33] it was 8.70; in that of `Nc1nccc2c1CC[C@H]2NC(=O)c1cn(Cc2ccc(N3CC(=O)N4CCCC4C3)nc2)nn1` (some centres unmarked) [Example 34], 6.41; in that of `Nc1nccc2c1CC[C@H]2NC(=O)c1cn(Cc2ccc(N3CCN4C(=O)COCC4C3)nc2)nn1` (some centres unmarked) [Example 35], 6.22. Then `Nc1nccc2c1CC[C@H]2NC(=O)c1cnn(Cc2ccc(N3CC4CC4C3)nc2C(F)(F)F)c1` (some centres unmarked) [Example 36], with 9.00. As to `Nc1ccc2c(n1)CC[C@H]2NC(=O)c1cnn(Cc2ccc(N3CC4CC4C3)nc2C(F)(F)F)c1` (some centres unmarked) [Example 37], the pIC50 is 8.10. For the compound `Nc1nccc2c1CC[C@H]2NC(=O)c1cn(Cc2ccc(N3CC4CC4C3)nc2C(F)(F)F)nn1` (some centres unmarked) [Example 38], the pIC50 was 9.00. In the case of `Nc1ccc2c(n1)CC[C@H]2NC(=O)c1cn(Cc2ccc(N3CC4CC4C3)nc2C(F)(F)F)nn1` (some centres unmarked) [Example 39] it was 7.85; in that of `Nc1ccc2c(n1)CC[C@H]2NC(=O)c1cnn(Cc2cnc(N3CC4CC4C3)cc2C(F)(F)F)c1` (some centres unmarked) [Example 40], 8.05. In the case of `Nc1nccc2c1CC[C@H]2NC(=O)c1cnn(Cc2cnc(N3CC4CC4C3)cc2C(F)(F)F)c1` (some centres unmarked) [Example 41] it was 9.00; in that of `Nc1nccc2c1CC[C@H]2NC(=O)c1cn(Cc2cnc(N3CC4CC4C3)cc2C(F)(F)F)nn1` (some centres unmarked) [Example 42], 9.00; in that of `Nc1ccc2c(n1)CC[C@H]2NC(=O)c1cn(Cc2cnc(N3CC4CC4C3)cc2C(F)(F)F)nn1` (some centres unmarked) [Example 43], 7.89.

`Cc1cc(N2CC3CC3C2)ncc1Cn1cc(C(=O)N[C@@H]2CCc3nc(N)ccc32)cn1` (some centres unmarked) [Example 44]: the negative-log IC50 (pIC50) is 7.52. `Cc1cc(N2CC3CC3C2)ncc1Cn1cc(C(=O)N[C@@H]2CCc3c2ccnc3N)cn1` (some centres unmarked) [Example 45]: the pIC50 was 8.40. As for `Cc1cc(N2CC3CC3C2)ncc1Cn1cc(C(=O)N[C@@H]2CCc3nc(N)ccc32)nn1` (some centres unmarked) [Example 46], the pIC50 is 7.42. For the compound `Cc1cc(N2CC3CC3C2)ncc1Cn1cc(C(=O)N[C@@H]2CCc3c2ccnc3N)nn1` (some centres unmarked) [Example 47], the pIC50 was 8.40.
